Common to all, as to test: selectivity profiling in a panel of 340 wild-type kinases (Reaction Biology Europe)
Type in all cases: binding

The target in experiment [1] is T1, 340 wild-type kinases (Homo sapiens, UniProt P52333).
T1 construct: purchased Reaction Biology Europe
T1 sequence (P52333 1-1124): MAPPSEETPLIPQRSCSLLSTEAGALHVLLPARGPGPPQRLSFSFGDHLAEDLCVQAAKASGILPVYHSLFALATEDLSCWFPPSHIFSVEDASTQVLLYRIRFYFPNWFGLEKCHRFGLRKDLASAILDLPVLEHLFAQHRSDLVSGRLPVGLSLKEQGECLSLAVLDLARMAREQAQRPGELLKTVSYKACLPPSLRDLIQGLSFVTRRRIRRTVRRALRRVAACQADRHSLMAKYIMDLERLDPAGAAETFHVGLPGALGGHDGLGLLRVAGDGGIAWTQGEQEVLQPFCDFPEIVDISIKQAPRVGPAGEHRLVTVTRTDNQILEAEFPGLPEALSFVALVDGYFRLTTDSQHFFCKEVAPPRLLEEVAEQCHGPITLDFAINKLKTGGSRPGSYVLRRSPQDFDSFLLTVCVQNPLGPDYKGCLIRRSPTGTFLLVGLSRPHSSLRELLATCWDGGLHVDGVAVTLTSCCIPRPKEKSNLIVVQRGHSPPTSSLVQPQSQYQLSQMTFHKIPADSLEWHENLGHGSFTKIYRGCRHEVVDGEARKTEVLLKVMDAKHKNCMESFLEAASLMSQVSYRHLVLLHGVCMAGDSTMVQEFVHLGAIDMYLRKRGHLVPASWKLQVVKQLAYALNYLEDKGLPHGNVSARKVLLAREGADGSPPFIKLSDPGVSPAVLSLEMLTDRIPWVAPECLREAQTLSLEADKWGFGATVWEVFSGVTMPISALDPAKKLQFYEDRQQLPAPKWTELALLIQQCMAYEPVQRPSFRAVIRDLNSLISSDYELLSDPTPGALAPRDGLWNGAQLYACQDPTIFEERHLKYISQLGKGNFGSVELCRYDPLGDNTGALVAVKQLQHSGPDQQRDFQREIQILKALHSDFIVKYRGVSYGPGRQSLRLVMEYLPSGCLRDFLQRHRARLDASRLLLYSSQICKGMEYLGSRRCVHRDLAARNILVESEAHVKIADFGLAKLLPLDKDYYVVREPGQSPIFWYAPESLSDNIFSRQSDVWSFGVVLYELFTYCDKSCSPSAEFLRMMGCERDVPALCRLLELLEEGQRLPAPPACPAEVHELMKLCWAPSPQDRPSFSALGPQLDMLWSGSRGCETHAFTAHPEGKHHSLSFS

Experiment [2] has as its target T2, 340 wild-type kinases (Homo sapiens, UniProt Q09013).
T2 construct: purchased Reaction Biology Europe
T2 sequence (Q09013 1-629): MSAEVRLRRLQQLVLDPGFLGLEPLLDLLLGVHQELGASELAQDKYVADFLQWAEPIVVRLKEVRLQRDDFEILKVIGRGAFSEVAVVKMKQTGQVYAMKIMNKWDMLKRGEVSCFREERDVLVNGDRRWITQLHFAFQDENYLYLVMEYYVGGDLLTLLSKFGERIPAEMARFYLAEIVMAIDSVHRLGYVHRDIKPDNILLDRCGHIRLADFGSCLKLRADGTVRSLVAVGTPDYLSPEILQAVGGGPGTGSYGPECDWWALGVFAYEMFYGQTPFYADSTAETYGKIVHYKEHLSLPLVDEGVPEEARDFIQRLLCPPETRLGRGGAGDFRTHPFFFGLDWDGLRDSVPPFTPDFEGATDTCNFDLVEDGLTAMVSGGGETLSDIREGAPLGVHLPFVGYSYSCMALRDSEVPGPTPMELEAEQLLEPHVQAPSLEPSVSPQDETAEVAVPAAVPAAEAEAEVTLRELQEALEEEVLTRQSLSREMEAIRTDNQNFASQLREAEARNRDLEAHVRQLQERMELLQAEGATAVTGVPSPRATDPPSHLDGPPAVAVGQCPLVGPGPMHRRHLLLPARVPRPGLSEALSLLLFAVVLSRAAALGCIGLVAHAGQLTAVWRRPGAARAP

Experiment [3] concerns the target T3, 340 wild-type kinases (Homo sapiens, UniProt Q96BR1).
T3 construct: purchased Reaction Biology Europe
T3 sequence (Q96BR1 1-496): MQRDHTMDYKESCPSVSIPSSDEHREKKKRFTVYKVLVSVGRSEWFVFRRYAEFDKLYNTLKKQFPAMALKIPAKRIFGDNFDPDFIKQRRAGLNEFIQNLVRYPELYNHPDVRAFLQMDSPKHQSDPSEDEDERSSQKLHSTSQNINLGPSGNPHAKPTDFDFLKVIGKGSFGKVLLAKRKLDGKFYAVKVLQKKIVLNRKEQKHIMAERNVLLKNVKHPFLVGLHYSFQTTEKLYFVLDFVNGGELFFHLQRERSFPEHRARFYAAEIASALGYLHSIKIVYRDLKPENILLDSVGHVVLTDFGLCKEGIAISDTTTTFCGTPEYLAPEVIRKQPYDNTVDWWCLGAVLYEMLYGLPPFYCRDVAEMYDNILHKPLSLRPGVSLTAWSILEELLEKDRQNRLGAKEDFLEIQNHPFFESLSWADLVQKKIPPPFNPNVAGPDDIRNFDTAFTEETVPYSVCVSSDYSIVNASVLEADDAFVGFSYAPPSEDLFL

Experiment [4] concerns the target T4, 340 wild-type kinases (Homo sapiens, UniProt P78362).
T4 construct: purchased Reaction Biology Europe

Molecules are shown by their SMILES. Read-outs that look alike come from different tables or passages of the source.

T4 sequence (P78362 whole entry): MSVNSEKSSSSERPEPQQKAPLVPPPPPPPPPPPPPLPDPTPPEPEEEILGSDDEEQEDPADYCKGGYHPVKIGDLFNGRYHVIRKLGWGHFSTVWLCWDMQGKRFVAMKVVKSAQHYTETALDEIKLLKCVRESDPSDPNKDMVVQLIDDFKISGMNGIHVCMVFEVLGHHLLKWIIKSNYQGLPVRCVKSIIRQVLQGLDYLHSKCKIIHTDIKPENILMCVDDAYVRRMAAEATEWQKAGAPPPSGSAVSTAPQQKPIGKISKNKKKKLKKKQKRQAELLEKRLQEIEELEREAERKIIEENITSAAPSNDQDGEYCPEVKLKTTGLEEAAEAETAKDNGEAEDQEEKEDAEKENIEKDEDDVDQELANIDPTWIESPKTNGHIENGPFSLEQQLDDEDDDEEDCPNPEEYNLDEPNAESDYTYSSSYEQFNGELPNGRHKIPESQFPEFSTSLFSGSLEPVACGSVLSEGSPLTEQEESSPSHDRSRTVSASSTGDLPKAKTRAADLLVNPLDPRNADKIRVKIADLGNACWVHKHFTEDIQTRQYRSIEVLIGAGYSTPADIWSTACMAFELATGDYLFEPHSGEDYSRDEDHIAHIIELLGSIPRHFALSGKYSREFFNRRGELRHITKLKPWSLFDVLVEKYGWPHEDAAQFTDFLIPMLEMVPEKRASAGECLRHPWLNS

Consider `CNC(=O)c1ccc2c(c1)C(=O)c1ccc(Nc3ccc(F)c(NC(=O)C4CC4)c3)cc1CC2` [Compound 2015], for which the remaining activity at 0.2 µM at 340 wild-type kinases [1] (0.2 µM 2015, read-out: JAK3 residual activity) worked out at 105%; on 340 wild-type kinases [1] (JAK3, 0.2 µM, read-out: residual activity), 105%; on 340 wild-type kinases [2] (0.2 µM 2015, read-out: DMPK residual activity), 82.9%; on 340 wild-type kinases [2] (DMPK, 0.2 µM, read-out: residual activity), 82.9%; at 340 wild-type kinases [3] (0.2 µM 2015, read-out: SGK3 residual activity) it was 107%; on 340 wild-type kinases [3] (SGK3, 0.2 µM, read-out: residual activity) it was 107%. The remaining activity at 0.2 µM at 340 wild-type kinases [4] (0.2 µM 2015, read-out: SRPK2 residual activity) was 89.5%; at 340 wild-type kinases [4] (SRPK2, 0.2 µM, read-out: residual activity) it was 89.5%. Further, the remaining activity at 1 µM came out at 110% at 340 wild-type kinases [1] (1 µM 2015, read-out: JAK3 residual activity); 110% on 340 wild-type kinases [1] (JAK3, 1 µM, read-out: residual activity); 90.2% on 340 wild-type kinases [2] (1 µM 2015, read-out: DMPK residual activity); 90.2% at 340 wild-type kinases [2] (DMPK, 1 µM, read-out: residual activity); 92.1% at 340 wild-type kinases [3] (1 µM 2015, read-out: SGK3 residual activity); 92% at 340 wild-type kinases [3] (SGK3, 1 µM, read-out: residual activity). Besides, the remaining activity at 1 µM at 340 wild-type kinases [4] (1 µM 2015, read-out: SRPK2 residual activity) is 91.2%; at 340 wild-type kinases [4] (SRPK2, 1 µM, read-out: residual activity), 91.2%.

Values taken from article PMC11864979, “First-in-class ultralong-target-residence-time p38α inhibitors as a mitosis-targeted therapy for colorectal cancer” (Nature Cancer, 2025).
